The source of these data is patent US20230321187A1, “OCTOPUS-DERIVED PEPTIDE OCTOPROMYCIN HAVING ANTIBACTERIAL AND ANTI-BIOFILM ACTIVITY AGAINST ACINETOBACTER BAUMANNII” (priority 2020, published 2023).

Series [1] concerns A. baumannii. Nature of the series: H2DCF-DA assay of ROS production. In kind it is cell-based, Acinetobacter baumannii. The conditions noted are these: MIC (50 μg/mL) and MBC (200 μg/mL), 10 hours. Here is the method: To further examine a mode of action of octopromycin related to endogenous ROS production in A. baumannii by octopromycin, H2DCF-DA assay was performed. The accumulation of ROS in A. baumannii was quantified using fluorescent probe carboxy-H2DCF-DA (Invitrogen, USA). An A. baumannii culture solution (OD-0.25, 5×10^6 CFU/mL) was treated with octopromycin (MIC; 50 μg/mL and MBC; 200 μg/mL) and cultured at 25° C. for 10 hours, and then, cells were harvested by centrifugation at 5000 rpm for 2 minutes. To detect ROS levels, the cells were stained with H2DCF-DA (100 μg/mL) and cultured at room temperature (24±1° C.) for 30 minutes and then centrifuged at 5000 rpm for 2 minutes. The cells were washed with ×1 PBS and dichloro-fluorescein (DCF) fluorescence was measured using CLSM (LSMS Live Configuration Variotwo VRGB, Zeiss, Germany) at an excitation wavelength of 488 nm and an emission wavelength of 535 nm.

Another series concerns Raw 264.7 cells. Nature of the series: MTT cytotoxicity assay in Raw 264.7 cells. The series is classed as cell-based. The procedure:
(§1) To measure the cytotoxicity of octopromycin on HEK293T (American Type Culture Collection ATCC-11268) and Raw 264.7 cells, the cells were treated with octopromycin and cell viability was evaluated. The cells were harvested, counted and seeded at a density of […] per well in a 96-well plate and cultured for 24 hours at 37° C. and 5% CO2. The cells were treated with different concentrations of octopromycin (0 to 800 μg/mL) and cultured for 24 hours. After culturing, the culture medium was replaced with a fresh medium, and 10 μL of MTT (5 mg/mL) was added to each well and incubated in a CO2 incubator for 4 hours. The formed formazan crystals were dissolved in 50 μL of DMSO and absorbance was measured at 570 nm using a microplate reader (Bio-Rad Laboratories, Inc, USA). Cells treated with the medium (control) were considered as 100% viability (control group), and current viability was normalized and calculated for the untreated control group.
Background: Formazan colour is commonly taken as a measure of viable cells.

Series [2] can be described thus: MTT cytotoxicity assay in Raw 264.7 cells. In kind it is cell-based. The note with it: mouse, Raw 264.7 cells. The procedure: as §1
Series [3] concerns A. baumannii. The experiment in a line: Histological analysis of A. baumannii-infected zebrafish (H&E). In kind it is in vivo. The conditions noted are these: 48 hpe, vs A. baumannii-infected group. From the text: Two zebrafish were selected from each group at the 80% death stage (48 hpe) and the spleen, gills and kidneys were collected separately. Structural changes in A. baumannii-infected zebrafish treated with octopromycin were confirmed by histological analysis. Briefly, two fish from each group (control group, A. baumannii-infected group and octopromycin-treated group) were anesthetized with excess tricaine and the spleen, gills, and kidneys were surgically removed. Each tissue was immersed in PBS and fixed in 10% neutral buffered formalin. After a 12-hour washing step, tissues were dehydrated using a graded series of alcohols in a semi-closed benchtop tissue processor (Leica® TP1020, Germany). The dehydrated tissues were paraffin-embedded (Leica®EG1150 Tissue Embedding Center, Germany), sectioned at […] (Leica®RM2125 microtome, Germany), and stained with Hematoxylin and Eosin (H & E) (Sigma, Aldrich). The stained tissues of each group were imaged using a digital camera (LEICA®DCF450-C, Germany) connected to a microscope (LEICA®DM 3000 LED).

Another series relates to zebrafish embryos. The experiment in a line: Zebrafish embryo toxicity (mortality and teratogenicity). In kind it is in vivo. The procedure:
Wild-type (AB) adult zebrafish was maintained in an automated water circulation system at 28° C. under a photoperiod of 14 h (light): 10 h (dark). After zebrafish (to 4 months of age) was mated, embryos were collected at a 1 hours post fertilization (1 hpf) stage and rinsed with embryo water. First, the viability of newly fertilized embryos was identified under a stereoscopic microscope (Nikon, SMZ1000, Japan) before use in experiments. To determine toxicity levels at 24, 48, 72, and 96 hours after exposure, embryos at stages 1-2 hpf were exposed to various concentrations of octopromycin (0 to 8 μg/mL) for 96 hours.
In addition, to evaluate in vivo toxicity, the cumulative mortality of developing zebrafish embryos for 96 hours was calculated at octopromycin exposure (0, 0.25, 0.50, 1.00, 2.00, 4.00, and 8.00 μg/mL). […] However, concentration-dependent mortality patterns occurred by an increase in octopromycin concentration.

Series [4] relates to A. baumannii. Nature of the series: FE-SEM analysis of morphological and ultrastructural changes. In kind it is cell-based, Acinetobacter baumannii. The conditions noted are these: MIC (50 μg/mL) and MBC (200 μg/mL), 9 hours. The procedure:
To understand a mode of action of octopromycin, FE-SEM analysis was performed at MIC and MBC concentrations to estimate the ultrastructure changes of A. baumannii.
First, A. baumannii cells were treated with octopromycin at MIC (50 μg/mL) and MBC (200 μg/mL) for 9 hours. As a negative control group, an untreated A. baumannii culture solution was used, and all other steps were performed identically for the sample. Subsequently, the culture solution was centrifuged at 3500 rpm […] and the pellet was washed with phosphate saline buffer PBS and prefixed with 2.5% glutaraldehyde for 30 minutes. Then, the prefixed cells were washed with PBS and continuously dehydrated using ethanol (30, 50, 70, 80, 90, and 100%). The fixed cells were dried and coated with platinum using an ion sputter (E-1030, Hitachi, Japan).

The test system of series [5] is A. baumannii. Nature of the series: MIC and MBC by media dilution test and subculture (CLSI). In kind it is cell-based, Acinetobacter baumannii. Here is the method: In Example 2, in order to confirm the antibacterial effect of octopromycin on A. baumannii bacteria having multi-drug resistance, a minimum inhibitory concentration (MIC) and a minimum bactericidal concentration (MBC) of octopromycin were confirmed.
The MIC and MBC levels of octopromycin in A. baumannii were determined using media dilution tests and subcultures, respectively, according to the guidelines of the Clinical and Laboratory Standards Institute (CLSI, 2008 M27-A3). Several concentrations of octopromycin (0, 5, 10, 25, 50, 100, and 200 μg/mL) were tested as standard antibiotics (positive control) together with chloramphenicol (10 μg/mL, Sigma-Aldrich, USA) acting on A. baumannii growth and the MBC of chloramphenicol was confirmed according to the same procedure. The MIC was determined as the minimum concentration required to inhibit visual growth of A. baumannii. […] For analysis of time-kill kinetics, A. baumannii was cultured with octopromycin at various concentrations (0, 25, 50, 100, and 200 μg/mL) in the TSA medium at 25° C., and at different time intervals (0, 3, 6, 9, 12, 18, and 21 h), the absorbance was measured at 595 nm using a microplate reader (Bio-Rad, Saint Louis, USA) to confirm an inhibitory effect after culturing.

“Also recorded” adds a separate entry of the source. Where no end group is shown, it is not given here. Bounds are passed on as bounds.

“RRLIRTDTGPIIYDYFKDQLLKKGMVILRESMKNLKGM [octopromycin]”: in the series on A. baumannii [1], the ROS level result was “increased in a concentration-dependent manner; also recorded: increased the production of reactive oxygen species”. Further, the cell viability result with Raw 264.7 cells (Raw 264.7, >400 μg/mL) is “significantly reduced”. Also, the toxic effect result in the series with Raw 264.7 cells (Raw 264.7, MBC level (200 μg/mL)) is “no toxic effect”. Also, the viability at 24 h, 400 µg/mL in series [2] (Raw 264.7, 400 μg/mL, 24 hours, read-out: cell viability) came to 80%. Moreover, the viability at 24 h in series [2] (Raw 264.7, concentration not stated, read-out: cells alive) is at least 85%. The “histology of kidney, spleen and gills” value with A. baumannii [3] is “tissue disorders and pathological damage were reduced overall; also recorded: tissue disorders and pathological damage were reduced in all tissues”. For the same sequence, the embryo mortality result was “no embryo mortality” in the series on zebrafish embryos (0.25 μg/mL, 96 hours exposure) and 100% in the series on zebrafish embryos (8.0 μg/mL, 24 hpe). In addition, the “toxicity to zebrafish embryos” value with zebrafish embryos (4 μg/mL) is listed as “not toxic”. In the series with zebrafish embryos (zebrafish embryos, no abnormal appearance), this sequence came in with a maximum non-lethal concentration of 4 µg/mL. The “morphological and ultrastructural changes (FE-SEM)” value in the series on A. baumannii [4] is “severe membrane destruction; also recorded: caused ultrastructural cell wall deformation”. Moreover, the “minimum bactericidal concentration (MBC)” value in the series with A. baumannii [5] (subculture on TSA, 24 hours) worked out at 200 µg/mL. Also, the “minimum inhibitory concentration (MIC)” value in the series on A. baumannii [5] (visual growth) stood at 50 µg/mL.
